Assay results as given in PubChem BioAssay (NCI).
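GI50 is the concentration that inhibits growth by half. TGI is the concentration that stops growth completely.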

Experiments:
Experiment in all cases: NCI-60 cell line screen, 384-well format
[1] = system: SF-539 CNS
[2] = system: MALME-3M melanoma
[3] = system: OVCAR-4 ovarian
[4] = system: DU-145 prostate
[5] = system: SN12C renal
[6] = system: NCI-H322M lung
[7] = system: HT29 colon
[8] = system: HOP-92 NSCLC
[9] = system: HL-60(TB) leukemia
[10] = system: SF-295 CNS
[11] = system: A549 NSCLC
[12] = system: SK-OV-3 ovarian
[13] = system: COLO 205 colon
[14] = system: M14 melanoma
[15] = system: OVCAR-8 ovarian
[16] = system: SR leukemia
[17] = system: NCI-H23 lung
[18] = system: NCI-H460 NSCLC
[19] = system: CCRF-CEM leukemia
[20] = system: MDA-MB-468 breast
[21] = system: MDA-MB-231 breast
[22] = system: HS 578T breast
[23] = system: NCI-H226 lung
[24] = system: PC-3 prostate
[25] = system: TK-10 renal
[26] = system: CAKI-1 renal
[27] = system: BT-549 breast
[28] = system: IGROV1 ovarian
[29] = system: LOX IMVI melanoma
[30] = system: K-562 leukemia
[31] = system: UO-31 renal
[32] = system: MCF7 breast
[33] = system: SW-620 colon
[34] = system: ACHN renal
[35] = system: SNB-75 CNS
[36] = system: SF-268 CNS
[37] = system: A498 renal
[38] = system: HOP-62 NSCLC
[39] = system: U251 glioblastoma
[40] = system: HCT-116 colon
[41] = system: SK-MEL-5 melanoma
[42] = system: NCI-H522 lung
[43] = system: SK-MEL-28 melanoma
[44] = system: MDA-MB-435 melanoma
[45] = system: RPMI-8226 leukemia
[46] = system: MOLT-4 leukemia
[47] = system: RXF 393 renal
[48] = system: OVCAR-3 ovarian
[49] = system: 786-0 renal
[50] = system: SNB-19 CNS
[51] = system: UACC-62 melanoma
[52] = system: KM12 colon

## CN[C@H]1CN(c2ccc3c(=O)c(C(=O)O)cn(-c4nccs4)c3n2)C[C@@H]1OC
[1]
  GI50: 0.85 µM
  TGI: > 100 µM
[2]
  GI50: 1.06 µM
  TGI: 2.7 µM
[3]
  GI50: 4.36 µM
  TGI: > 100 µM
[4]
  GI50: 1.49 µM
  TGI: 7.07 µM
[5]
  GI50: 0.403 µM
  TGI: 2.77 µM
[6]
  GI50: 3.52 µM
  TGI: 39.7 µM
[7]
  GI50: 1.28 µM
  TGI: 3.88 µM
[8]
  GI50: 1.61 µM
  TGI: 8.56 µM
[9]
  GI50: 0.0776 µM
  TGI: 0.238 µM
[10]
  GI50: 0.426 µM
  TGI: 2.63 µM
[11]
  GI50: 0.686 µM
  TGI: > 100 µM
[12]
  GI50: 1.8 µM
  TGI: 26.3 µM
[13]
  GI50: 0.394 µM
  TGI: > 100 µM
[14]
  GI50: 0.674 µM
  TGI: 3.02 µM
[15]
  GI50: 0.637 µM
  TGI: > 100 µM
[16]
  GI50: 0.0189 µM
  TGI: 0.0443 µM
[17]
  GI50: 0.551 µM
  TGI: 2.57 µM
[18]
  GI50: 0.206 µM
  TGI: 1.35 µM
[19]
  GI50: 0.0586 µM
  TGI: 0.276 µM
[20]
  GI50: 0.787 µM
  TGI: 2.57 µM
[21]
  GI50: 1.41 µM
  TGI: 11.4 µM
[22]
  GI50: 0.64 µM
  TGI: 5.24 µM
[23]
  GI50: 1.23 µM
  TGI: 3.6 µM
[24]
  GI50: 2.41 µM
  TGI: 15.4 µM
[25]
  GI50: 1.79 µM
  TGI: 12.1 µM
[26]
  GI50: 0.752 µM
  TGI: 6.44 µM
[27]
  GI50: 0.585 µM
  TGI: 6.87 µM
[28]
  GI50: 1.8 µM
  TGI: > 100 µM
[29]
  GI50: 0.776 µM
  TGI: 2.12 µM
[30]
  GI50: 0.616 µM
  TGI: 6.05 µM
[31]
  GI50: 1.47 µM
  TGI: 8.66 µM
[32]
  GI50: 0.602 µM
  TGI: > 100 µM
[33]
  GI50: 0.823 µM
  TGI: 7.71 µM
[34]
  GI50: 0.458 µM
  TGI: 2.44 µM
[35]
  GI50: 0.855 µM
  TGI: 2.47 µM
[36]
  GI50: 0.421 µM
  TGI: 6.03 µM
[37]
  GI50: 0.781 µM
  TGI: 3.83 µM
[38]
  GI50: 0.479 µM
  TGI: 2.2 µM
[39]
  GI50: 0.675 µM
  TGI: 2.56 µM
[40]
  GI50: 0.371 µM
  TGI: 3.76 µM
[41]
  GI50: 1.15 µM
  TGI: 2.54 µM
[42]
  GI50: 1.21 µM
  TGI: 5.61 µM
[43]
  GI50: 1.13 µM
  TGI: 2.93 µM
[44]
  GI50: 3.5 µM
  TGI: > 100 µM
[45]
  GI50: 0.0605 µM
  TGI: 1.18 µM
[46]
  GI50: 0.0305 µM
  TGI: 0.12 µM
[47]
  GI50: 0.86 µM
  TGI: 5.37 µM
[48]
  GI50: 1.32 µM
  TGI: 6.19 µM
[49]
  GI50: 0.434 µM
  TGI: 4.59 µM
[50]
  GI50: 0.559 µM
  TGI: 2.93 µM
[51]
  GI50: 0.427 µM
  TGI: 1.89 µM
[52]
  GI50: 0.654 µM
  TGI: 10.7 µM
